According to patent US20180077928A1, “INSECT REPELLENT FIBER AND INSECT REPELLENT SCREEN USING SAME” (priority 2015, published 2018):

Key:
[1] = Acceptable Daily Intake (ADI) set by WHO and FAO; acceptable intake used in evaluation criteria; design: species or system human; settings: person/child who weighs 15 kg, calculated from ADI
Experimental: When the amount of the insect repellent 4 (permethrin) exposed to the surface of the insect repellent fiber 1 is less than 0.4 μg per gram of the insect repellent fiber 1, the insect repellent effect cannot be sufficiently exerted. […] The WHO and FAO (Food and Agriculture Organization of the United Nations) have investigated harmful effects of permethrin to a human body on the basis of a large amount of data obtained by animal tests and the like. According to the investigation results, the amount of permethrin that can be ingested by human over a lifetime without an appreciable health risk, or also referred to as ADI (Acceptable Daily Intake), is set to “0.05 mg/day/kg”. For example, for people who weigh 15 kg (weight of around a child), this value per day is calculated to be 0.75 mg. This means that permethrin of such an amount may be continually ingested without an appreciable health risk. […]
The safety was evaluated according to the following evaluation criteria by assuming a situation that a child who weighs 15 kg licked a whole area of a screen door in which the insect repellent screen having an area of 1 m^2 was installed. […] It is noted that when the insert repellent screen was evaluated as “good”, the insect repellent screen was determined to be safe.

[2] = human, over a lifetime without appreciable health risk; WHO and FAO; cited from earlier work

| Compound | acceptable intake per day [1] | ADI (Acceptable Daily Intake) [2] |
| --- | --- | --- |
| CCOc1ccc(C(C)(C)COCc2cccc(Oc3ccccc3)c2)cc1 [ethofenprox] | 0.45 mg | – |
| CC1(C)C(C=C(Cl)Cl)C1C(=O)OCc1cccc(Oc2ccccc2)c1 (stereo not drawn) [permethrin] | 0.75 mg | 0.05 mg/day/kg |
